Measurements: ChEMBL document CHEMBL3431459, “Roche carnitine palmitoyltransferase modulator screening data (supplementary data associated with the publication CHEMBL2216752)”
In brackets after ≈: the same amount, converted by molar mass.

Assays:
[1] = biological target: T1, Carnitine O-palmitoyltransferase 1, muscle isoform (Homo sapiens, UniProt Q92523); assay: SUPPLEMENTARY: Inhibition of Carnitine palmitoyltransferase 1, muscle isoform; design: species or system Muscle tissue
T1 sequence (Q92523 whole entry): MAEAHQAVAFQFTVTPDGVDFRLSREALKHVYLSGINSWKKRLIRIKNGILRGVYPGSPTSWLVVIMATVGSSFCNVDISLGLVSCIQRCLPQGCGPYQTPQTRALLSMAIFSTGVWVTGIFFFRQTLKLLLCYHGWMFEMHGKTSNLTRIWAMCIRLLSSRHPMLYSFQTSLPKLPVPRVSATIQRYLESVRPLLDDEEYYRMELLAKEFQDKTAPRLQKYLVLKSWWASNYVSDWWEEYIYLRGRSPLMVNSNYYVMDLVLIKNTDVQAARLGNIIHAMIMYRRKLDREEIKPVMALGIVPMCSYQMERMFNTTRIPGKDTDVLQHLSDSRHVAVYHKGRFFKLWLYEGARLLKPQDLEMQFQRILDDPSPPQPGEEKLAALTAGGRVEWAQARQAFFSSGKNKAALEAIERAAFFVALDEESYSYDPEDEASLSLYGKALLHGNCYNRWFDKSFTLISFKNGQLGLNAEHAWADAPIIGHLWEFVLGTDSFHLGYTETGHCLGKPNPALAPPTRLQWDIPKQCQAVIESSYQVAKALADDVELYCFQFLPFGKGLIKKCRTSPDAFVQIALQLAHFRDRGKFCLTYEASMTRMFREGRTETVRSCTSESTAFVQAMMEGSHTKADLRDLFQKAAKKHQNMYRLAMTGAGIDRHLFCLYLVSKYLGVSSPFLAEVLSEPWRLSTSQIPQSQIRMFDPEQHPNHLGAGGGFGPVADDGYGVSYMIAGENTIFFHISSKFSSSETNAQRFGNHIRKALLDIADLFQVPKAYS

[2] = biological target: T2, Carnitine O-palmitoyltransferase 2, mitochondrial (Homo sapiens, UniProt P23786); assay: (§1) SUPPLEMENTARY: Inhibition of Carnitine palmitoyltransferase 2
T2 sequence (P23786 whole entry): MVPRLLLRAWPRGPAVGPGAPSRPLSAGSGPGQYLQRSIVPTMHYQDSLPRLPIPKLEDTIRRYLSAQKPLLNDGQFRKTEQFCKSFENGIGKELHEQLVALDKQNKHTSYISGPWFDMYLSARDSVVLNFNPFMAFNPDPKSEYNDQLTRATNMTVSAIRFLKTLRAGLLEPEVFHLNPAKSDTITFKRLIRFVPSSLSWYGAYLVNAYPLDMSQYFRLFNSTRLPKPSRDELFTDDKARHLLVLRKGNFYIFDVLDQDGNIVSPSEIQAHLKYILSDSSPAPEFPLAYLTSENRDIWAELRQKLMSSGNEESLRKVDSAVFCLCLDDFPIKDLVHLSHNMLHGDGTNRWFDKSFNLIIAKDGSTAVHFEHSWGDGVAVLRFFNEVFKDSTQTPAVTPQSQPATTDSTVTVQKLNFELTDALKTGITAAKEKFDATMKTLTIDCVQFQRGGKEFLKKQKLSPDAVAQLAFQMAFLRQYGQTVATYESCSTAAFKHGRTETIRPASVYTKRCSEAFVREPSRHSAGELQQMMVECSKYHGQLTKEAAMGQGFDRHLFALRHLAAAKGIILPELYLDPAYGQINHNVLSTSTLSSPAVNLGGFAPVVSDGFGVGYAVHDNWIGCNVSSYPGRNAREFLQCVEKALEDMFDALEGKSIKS

[3] = biological target: T3, Carnitine O-palmitoyltransferase 2, mitochondrial (Rattus norvegicus, UniProt P18886); assay: as §1
T3 sequence (P18886 whole entry): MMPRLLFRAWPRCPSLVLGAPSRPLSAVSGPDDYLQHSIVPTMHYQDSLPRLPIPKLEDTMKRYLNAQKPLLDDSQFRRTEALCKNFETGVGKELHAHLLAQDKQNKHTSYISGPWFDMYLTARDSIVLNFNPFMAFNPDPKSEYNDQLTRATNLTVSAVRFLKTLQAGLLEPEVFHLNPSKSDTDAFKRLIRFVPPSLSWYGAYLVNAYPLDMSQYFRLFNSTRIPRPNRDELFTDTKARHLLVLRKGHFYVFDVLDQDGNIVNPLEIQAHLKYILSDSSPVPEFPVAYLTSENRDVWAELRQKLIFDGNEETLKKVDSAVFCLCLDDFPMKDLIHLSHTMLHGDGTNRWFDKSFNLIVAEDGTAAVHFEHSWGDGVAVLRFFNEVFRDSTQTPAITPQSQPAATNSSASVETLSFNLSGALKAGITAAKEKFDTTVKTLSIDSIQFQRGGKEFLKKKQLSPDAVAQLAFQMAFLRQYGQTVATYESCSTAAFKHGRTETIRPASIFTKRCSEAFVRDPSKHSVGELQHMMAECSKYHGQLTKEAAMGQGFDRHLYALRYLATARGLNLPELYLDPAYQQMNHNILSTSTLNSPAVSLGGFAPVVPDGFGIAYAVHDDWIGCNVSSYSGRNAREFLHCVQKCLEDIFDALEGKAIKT

[4] = biological target: T4, Carnitine O-palmitoyltransferase 1, liver isoform (Homo sapiens, UniProt P50416); assay: (§2) SUPPLEMENTARY: Inhibition of Carnitine palmitoyltransferase 1, liver isoform
T4 sequence (P50416 whole entry): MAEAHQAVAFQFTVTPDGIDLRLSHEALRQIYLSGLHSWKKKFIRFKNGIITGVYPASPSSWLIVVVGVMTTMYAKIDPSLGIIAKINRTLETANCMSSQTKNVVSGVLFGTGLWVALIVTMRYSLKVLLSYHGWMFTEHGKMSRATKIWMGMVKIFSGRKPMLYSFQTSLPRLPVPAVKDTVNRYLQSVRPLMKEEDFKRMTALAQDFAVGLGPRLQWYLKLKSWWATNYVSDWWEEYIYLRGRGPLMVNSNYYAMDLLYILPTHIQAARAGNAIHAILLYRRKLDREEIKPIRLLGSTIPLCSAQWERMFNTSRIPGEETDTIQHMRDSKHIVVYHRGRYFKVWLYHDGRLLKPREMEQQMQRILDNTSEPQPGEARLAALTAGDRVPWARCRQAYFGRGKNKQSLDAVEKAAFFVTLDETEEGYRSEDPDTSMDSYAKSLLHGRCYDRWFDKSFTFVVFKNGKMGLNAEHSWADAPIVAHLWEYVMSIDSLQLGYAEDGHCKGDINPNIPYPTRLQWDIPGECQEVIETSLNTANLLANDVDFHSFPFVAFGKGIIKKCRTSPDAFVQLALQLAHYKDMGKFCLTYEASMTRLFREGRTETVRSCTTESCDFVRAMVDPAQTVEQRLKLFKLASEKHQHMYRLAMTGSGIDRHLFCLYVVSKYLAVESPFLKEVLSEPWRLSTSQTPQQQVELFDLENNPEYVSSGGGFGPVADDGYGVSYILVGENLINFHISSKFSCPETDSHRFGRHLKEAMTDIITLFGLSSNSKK

[5] = biological target: T5, Carnitine O-palmitoyltransferase 1, liver isoform (Rattus norvegicus, UniProt P32198); assay: as §2
T5 sequence (P32198 whole entry): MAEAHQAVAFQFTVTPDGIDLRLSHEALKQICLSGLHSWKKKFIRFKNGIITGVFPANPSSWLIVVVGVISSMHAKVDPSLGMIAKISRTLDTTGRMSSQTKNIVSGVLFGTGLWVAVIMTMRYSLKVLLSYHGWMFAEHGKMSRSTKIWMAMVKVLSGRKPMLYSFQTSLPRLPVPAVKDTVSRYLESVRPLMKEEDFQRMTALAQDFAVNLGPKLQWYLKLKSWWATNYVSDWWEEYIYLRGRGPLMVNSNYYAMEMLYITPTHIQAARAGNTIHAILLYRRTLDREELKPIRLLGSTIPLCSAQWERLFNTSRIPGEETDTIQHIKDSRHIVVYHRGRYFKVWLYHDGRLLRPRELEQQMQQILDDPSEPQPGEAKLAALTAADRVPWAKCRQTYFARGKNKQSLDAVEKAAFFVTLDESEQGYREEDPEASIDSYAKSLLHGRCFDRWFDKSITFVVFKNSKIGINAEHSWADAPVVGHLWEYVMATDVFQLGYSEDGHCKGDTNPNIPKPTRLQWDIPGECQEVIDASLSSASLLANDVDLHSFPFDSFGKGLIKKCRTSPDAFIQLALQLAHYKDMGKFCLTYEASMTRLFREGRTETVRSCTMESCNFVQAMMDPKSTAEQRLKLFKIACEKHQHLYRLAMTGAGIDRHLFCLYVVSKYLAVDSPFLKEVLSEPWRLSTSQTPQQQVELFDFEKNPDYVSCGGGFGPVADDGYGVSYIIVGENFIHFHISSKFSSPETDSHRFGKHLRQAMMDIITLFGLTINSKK

[6] = SUPPLEMENTARY: Lyophilisation Solubility Assay (LYSA); type: physicochemical; conditions: read-out: Kinetic_solubility
[7] = SUPPLEMENTARY: Lipophilicity (log D) Determination by high-throughput shake-flask; type: physicochemical; conditions: octanol/water
[8] = SUPPLEMENTARY: PAMPA permeability assay; type: physicochemical; conditions: read-out: Permeability

SMILES	IC50 [1] [nM]	IC50 [2] [nM]	IC50 [3] [nM]	IC50 [4] [nM]	IC50 [5] [nM]	solubility kinetic [6] [µg/mL]	logD [7]	Papp [8] [×10⁻⁶ cm/s]
Cc1cc(-c2nc([C@H]3CCCCN3C(=O)COc3ccccc3)no2)no1	> 100000	> 100000	> 100000	166	448	39 (≈ 106 µM)	2.62	6.78
Cc1cc(C)cc(S(=O)(=O)N2CCc3ccc(C(=O)Nc4ccc(CC(=O)O)cc4)cc32)c1	6790	> 100000	> 100000	187	133	5 (≈ 10.8 µM)	2.42	4.05
COC1CCC(c2nc([C@H]3CCCCN3C(=O)COc3ccccc3)no2)CC1 (stereo not given in full)	> 100000	78400	> 100000	191	222	50.5 (≈ 126 µM)	2.83	3.5
COc1ccc(Cl)cc1S(=O)(=O)N1CCOc2c(F)cc(C(=O)Nc3ccc(C(=O)O)c(F)c3)cc21	4560	1530	6510	57.5	56.7	7 (≈ 13 µM)	0.52	1.66
COc1ccc(Cl)cc1S(=O)(=O)c1cn(CCCO)c2ccc(C(=O)Nc3ccccc3)cc12	> 100000	> 100000	> 100000	45	10.1	< 1	3.62	0.06
COc1ccc(Cl)cc1S(=O)(=O)N1COc2ccc(C(=O)Nc3nc(CC(=O)O)cs3)cc21	661	> 100000	> 100000	53.3	18.4	519 (≈ 1020 µM)	0.13	2.93
COc1ccc(Cl)cc1S(=O)(=O)N1CCc2ccc(C(=O)Nc3nc(CC(=O)O)cs3)cc21	1310	> 100000	> 100000	22.3	15.2	48 (≈ 94.5 µM)	0.17	3.25
O=C([C@H]1CCCCN1C(=O)COc1ccccc1)N1Cc2cc(F)c(OC3CCOCC3)cc2C1	> 100000	507	1310	210	76.8	37 (≈ 76.7 µM)	2.45	3.57
O=C(COc1ccccc1)N1CCNC[C@@H]1c1nc(-c2ccc3[nH]cnc3c2)no1	> 100000	> 100000	> 100000	132	9640	367 (≈ 907 µM)	1.63	1.53
O=C(COc1ccccc1)N1CCCC[C@@H]1c1noc(-c2ccc3[nH]nnc3c2)n1	> 100000	> 100000	> 100000	79.4	916	46.5 (≈ 115 µM)	2.22	2.14
